Data: patent US10081628B2, “Apoptosis-inducing agents for the treatment of cancer and immune and autoimmune diseases” (AbbVie Inc., priority 2013, dated 2018)
Where two headings read alike, the source gives them in different places.

Legend:
RS4;11 cells = experiment: RS4;11 cell viability assay (CellTiter Glo); assay type: cell-based; conditions: 10% human serum, 48 hours
Description: The acute lymphoblastic leukemia (ALL) cell line RS4;11 was used as the primary human cell line to assess the cellular activity of Bcl-2 selective agents in vitro and their efficacy in vivo. Previous studies have shown by BH3 profiling, a mitochondrial assay that classifies blocks in the intrinsic apoptotic pathway, that RS4;11 cells were highly dependant on BCL-2 for survival and sensitive to the Bcl-2 family member inhibitor ABT-737 (Blood, 2008, Vol. 111, 2300-2309).
RS4;11 cells were cultured in RPMI-1640 supplemented with 2 mM L-glutamine, 10% FBS, 1 mM sodium pyruvate, 2 mM HEPES, 1% penicillin/streptomycin (Invitrogen), 4.5 g/L glucose and maintained at 37 C containing 5% CO2. To test for the cellular activity of compounds in vitro, cells were treated at 50,000 cells per well in 96-well microtiter plates in the presence of 10% human serum for 48 hours in a humidified chamber with 5% CO2. Cell cytotoxicity EC50 values were assessed using CellTiter Glo (Promega) according to the manufacturer's recommendations. The EC50 values were determined as a percentage of viable cells following treatment compared to the untreated control cells.

GST-Bcl-2 = GST-Bcl-2 (Homo sapiens, UniProt P10415); experiment: TR-FRET Bcl-2 binding assay (F-Bak peptide probe); conditions: GST-Bcl-2 1 nM, F-Bak peptide probe 100 nM, Tb-anti-GST 1 nM; Wang's equation; '<' = below limit of detection
Description: Determination of the utility of compounds of this invention as binders to and inhibitors of anti-apoptotic Bcl-2 proteins was performed using the Time Resolved-Fluorescence Resonance Energy Transfer (TR-FRET) Assay. Tb-anti-GST antibody was purchased from Invitrogen (Catalog No. PV4216).
Representative compounds were serially diluted in dimethyl sulfoxide (DMSO) starting at 50 μM (2× starting concentration; 10% DMSO) and 10 μL were transferred into a 384-well plate. The samples are then mixed on a shaker for 1 minute and incubated for an additional 3 hours at room temperature. For each assay, the probe/antibody and protein/probe/antibody were included on each assay plate as negative and positive controls, respectively. Fluorescence was measured on the Envision (Perkin Elmer) using a 340/35 nm excitation filter and 520/525 (F-Bak peptide) and 495/510 nm (Tb-labeled […] antibody) emission filters. Dissociation constants (Ki) are shown in TABLE 2 below and were determined using Wang's equation (Wang Z.-X., An Exact Mathematical Expression For Describing Competitive Binding Of Two Different Ligands To A Protein Molecule. FEBS Lett. 1995, 360:111-4).
The samples were then mixed on a shaker for 1 minute and incubated for an additional 3 hours at room temperature. For each assay, the probe/antibody and protein/probe/antibody were included on each assay plate as negative and positive controls, respectively. Fluorescence was measured on the Envision (Perkin Elmer) using a 340/35 nm excitation filter and 520/525 (F-Bak peptide) and 495/510 nm (Tb-labeled anti-Histidine antibody) emission filters.
Inhibition constants (Ki) for compounds were determined using Wang's equation (Wang Zx. An Exact Mathematical Expression For Describing Competitive Binding Of Two Different Ligands To A Protein Molecule. FEBS Lett. 1995, 360:111-4).
The inhibition constant (Ki) is the dissociation constant of an enzyme-inhibitor complex or a protein/small molecule complex, wherein the small molecule is inhibiting binding of one protein to another protein or peptide. So a large Ki value indicates a low binding affinity and a small Ki value indicates a high binding affinity. […] The compounds are therefore expected to have utility in treatment of diseases during which anti-apoptotic Bcl-2 protein is expressed. Biological Data

lymphocytes = experiment: Lymphocyte reduction in C57BL/6 mice; assay type: in vivo; conditions: Mus musculus, ip
Description: An experiment was performed to evaluate the effect of Bcl-2 selective/Bcl-xL sparing compounds on immune cells and platelets, as evaluated in C57Bl/6 mice. Mice were treated four days with compounds (doses of 30 mg/kg, administered by intraperitoneal injection every day) and cell numbers were measured with a Cell Dyn hematology analyzer 24 hours after the first and last doses. Exposure of the compound (area under the curve) was calculated by using time points of 1, 6, 10 and 24 hours after the last dose.

[1] = 30 mg/kg intraperitoneal every day for four days, 24 hours after the last dose, read-out: Lymphocyte reduction % inh. day 4
[2] = 30 mg/kg intraperitoneal every day, 24 hours after the first dose, read-out: Lymphocyte reduction % inh. day 1

Chain of GST-Bcl-2 (P10415 whole entry): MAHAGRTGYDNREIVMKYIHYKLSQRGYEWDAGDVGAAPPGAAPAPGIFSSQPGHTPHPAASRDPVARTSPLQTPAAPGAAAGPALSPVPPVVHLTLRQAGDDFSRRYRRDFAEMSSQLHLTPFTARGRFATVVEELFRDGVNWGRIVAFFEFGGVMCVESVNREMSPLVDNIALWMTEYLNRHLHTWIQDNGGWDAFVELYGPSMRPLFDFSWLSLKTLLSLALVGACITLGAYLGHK

CC1(C)CCC(CN2CCN(c3ccc(C(=O)NS(=O)(=O)c4ccc(NC56CC7CC(CC(O)(C7)C5)C6)c([N+](=O)[O-])c4)c(Oc4cnc5[nH]ccc5c4)c3)CC2)=C(c2ccc(Cl)cc2)C1 [Example 13, 4-(4-{[2-(4-chlorophenyl)-4,4-dimethylcyclohex-1-en-1-yl]methyl}piperazin-1-yl)-N-({4-[(3-hydroxytricyclo[3.3.1.1^3,7]dec-1-yl)amino]-3-nitrophenyl}sulfonyl)-2-(1H-pyrrolo[2,3-b]pyridin-5-yloxy)benzamide]
EC50 (RS4;11 cells): 130 nM

CC1(C)CCC(CN2CCN(c3ccc(C(=O)NS(=O)(=O)c4ccc(NCC5CCN(S(=O)(=O)C(F)(F)F)CC5)c([N+](=O)[O-])c4)c(Oc4cnc5[nH]ccc5c4)c3)CC2)=C(c2ccc(Cl)cc2)C1 [Example 29, 4-(4-{[2-(4-chlorophenyl)-4,4-dimethylcyclohex-1-en-1-yl]methyl}piperazin-1-yl)-N-({3-nitro-4-[({1-[(trifluoromethyl)sulfonyl]piperidin-4-yl}methyl)amino]phenyl}sulfonyl)-2-(1H-pyrrolo[2,3-b]pyridin-5-yloxy)benzamide]
EC50 (RS4;11 cells): 57 nM | Ki (GST-Bcl-2): < 0.1 nM

C[C@H](Nc1ccc(S(=O)(=O)NC(=O)c2ccc(N3CCN(CC4=C(c5ccc(Cl)cc5)CC(C)(C)CC4)CC3)cc2Oc2cnc3[nH]ccc3c2)cc1[N+](=O)[O-])C1CCOCC1 [Example 2, 4-(4-{[2-(4-chlorophenyl)-4,4-dimethylcyclohex-1-en-1-yl]methyl}piperazin-1-yl)-N-[(3-nitro-4-{[(1S)-1-(tetrahydro-2H-pyran-4-yl)ethyl]amino}phenyl)sulfonyl]-2-(1H-pyrrolo[2,3-b]pyridin-5-yloxy)benzamide]
EC50 (RS4;11 cells): 160 nM | inhibition at 30 mg/kg (lymphocytes; [1]): < 15% | inhibition at 30 mg/kg (lymphocytes; [2]): < 15%

CC1(C)CCC(CN2CCN(c3ccc(C(=O)NS(=O)(=O)c4ccc(NC[C@@H]5CCCOCC5)c([N+](=O)[O-])c4)c(Oc4cnc5[nH]ccc5c4)c3)CC2)=C(c2ccc(Cl)cc2)C1 [Example 19, 4-(4-{[2-(4-chlorophenyl)-4,4-dimethylcyclohex-1-en-1-yl]methyl}piperazin-1-yl)-N-[(3-nitro-4-{[(4R)-oxepan-4-ylmethyl]amino}phenyl)sulfonyl]-2-(1H-pyrrolo[2,3-b]pyridin-5-yloxy)benzamide]
EC50 (RS4;11 cells): 14 nM | inhibition at 30 mg/kg (lymphocytes; [1]): 45% | inhibition at 30 mg/kg (lymphocytes; [2]): 49%

CC1(C)CCC(CN2CCN(c3ccc(C(=O)NS(=O)(=O)c4ccc(NCC5CCOCC5)c([N+](=O)[O-])c4)c(Oc4cnc5[nH]ccc5c4)c3)CC2)=C(c2ccc(C3CC3)cc2)C1 [Example 52, 4-(4-{[2-(4-cyclopropylphenyl)-4,4-dimethylcyclohex-1-en-1-yl]methyl}piperazin-1-yl)-N-({3-nitro-4-[(tetrahydro-2H-pyran-4-ylmethyl)amino]phenyl}sulfonyl)-2-(1H-pyrrolo[2,3-b]pyridin-5-yloxy)benzamide]
EC50 (RS4;11 cells): 16 nM | inhibition at 30 mg/kg (lymphocytes; [1]): 51% | inhibition at 30 mg/kg (lymphocytes; [2]): 54%

COC(=O)C1(CNc2ccc(S(=O)(=O)NC(=O)c3ccc(N4CCN(CC5=C(c6ccc(Cl)cc6)CC(C)(C)CC5)CC4)cc3Oc3cnc4[nH]ccc4c3)cc2[N+](=O)[O-])CCOCC1 [Example 17, methyl 4-{[(4-{[4-(4-{[2-(4-chlorophenyl)-4,4-dimethylcyclohex-1-en-1-yl]methyl}piperazin-1-yl)-2-(1H-pyrrolo[2,3-b]pyridin-5-yloxy)benzoyl]sulfamoyl}-2-nitrophenyl)amino]methyl}tetrahydro-2H-pyran-4-carboxylate]
EC50 (RS4;11 cells): 85 nM

CC1(C)CCC(CN2CCN(c3ccc(C(=O)NS(=O)(=O)c4ccc(NCC5CCC6(CC5)OCCO6)c([N+](=O)[O-])c4)c(Oc4cnc5[nH]ccc5c4)c3)CC2)=C(c2ccc(Cl)cc2)C1 [Example 7, 4-(4-{[2-(4-chlorophenyl)-4,4-dimethylcyclohex-1-en-1-yl]methyl}piperazin-1-yl)-N-({4-[(1,4-dioxaspiro[4.5]dec-8-ylmethyl)amino]-3-nitrophenyl}sulfonyl)-2-(1H-pyrrolo[2,3-b]pyridin-5-yloxy)benzamide]
EC50 (RS4;11 cells): 6.8 nM | inhibition at 30 mg/kg (lymphocytes; [1]): 55% | inhibition at 30 mg/kg (lymphocytes; [2]): 64%

CC1(C)CCC(CN2CCN(c3ccc(C(=O)NS(=O)(=O)c4ccc(NCC5CCOCC5)c([N+](=O)[O-])c4)c(Oc4cnc5[nH]ccc5c4)c3)CC2)=C(c2ccc(Cl)cc2F)C1 [Example 48, 4-(4-{[2-(4-chloro-2-fluorophenyl)-4,4-dimethylcyclohex-1-en-1-yl]methyl}piperazin-1-yl)-N-({3-nitro-4-[(tetrahydro-2H-pyran-4-ylmethyl)amino]phenyl}sulfonyl)-2-(1H-pyrrolo[2,3-b]pyridin-5-yloxy)benzamide]
EC50 (RS4;11 cells): 3.3 nM | inhibition at 30 mg/kg (lymphocytes; [1]): 78% | inhibition at 30 mg/kg (lymphocytes; [2]): 76%

CC1(C)CCC(CN2CCN(c3ccc(C(=O)NS(=O)(=O)c4ccc(NCC5(F)COCCOC5)c([N+](=O)[O-])c4)c(Oc4cnc5[nH]ccc5c4)c3)CC2)=C(c2ccc(Cl)cc2)C1 [Example 39, 4-(4-{[2-(4-chlorophenyl)-4,4-dimethylcyclohex-1-en-1-yl]methyl}piperazin-1-yl)-N-[(4-{[(6-fluoro-1,4-dioxepan-6-yl)methyl]amino}-3-nitrophenyl)sulfonyl]-2-(1H-pyrrolo[2,3-b]pyridin-5-yloxy)benzamide]
EC50 (RS4;11 cells): 40 nM

CCC1(CNc2ccc(S(=O)(=O)NC(=O)c3ccc(N4CCN(CC5=C(c6ccc(Cl)cc6)CC(C)(C)CC5)CC4)cc3Oc3cnc4[nH]ccc4c3)cc2[N+](=O)[O-])CCOCC1 [Example 50, 4-(4-{[2-(4-chlorophenyl)-4,4-dimethylcyclohex-1-en-1-yl]methyl}piperazin-1-yl)-N-[(4-{[(4-ethyltetrahydro-2H-pyran-4-yl)methyl]amino}-3-nitrophenyl)sulfonyl]-2-(1H-pyrrolo[2,3-b]pyridin-5-yloxy)benzamide]
EC50 (RS4;11 cells): 52 nM

CC1(C)CCC(CN2CCN(c3ccc(C(=O)NS(=O)(=O)c4ccc(NCC5CCOCC5)c([N+](=O)[O-])c4)c(Oc4cnc5[nH]ccc5c4)c3)CC2)=C(c2ccc(Cl)c(F)c2)C1 [Example 49, 4-(4-{[2-(4-chloro-3-fluorophenyl)-4,4-dimethylcyclohex-1-en-1-yl]methyl}piperazin-1-yl)-N-({3-nitro-4-[(tetrahydro-2H-pyran-4-ylmethyl)amino]phenyl}sulfonyl)-2-(1H-pyrrolo[2,3-b]pyridin-5-yloxy)benzamide]
EC50 (RS4;11 cells): 46 nM

CC1(C)CCC(CN2CCN(c3ccc(C(=O)NS(=O)(=O)c4ccc(NCC5CCOCC5)c([N+](=O)[O-])c4)c(Oc4cnc5[nH]ccc5c4)c3)CC2)=C(c2ccc(C(F)F)cc2)C1 [Example 54, 4-[4-({2-[4-(difluoromethyl)phenyl]-4,4-dimethylcyclohex-1-en-1-yl}methyl)piperazin-1-yl]-N-({3-nitro-4-[(tetrahydro-2H-pyran-4-ylmethyl)amino]phenyl}sulfonyl)-2-(1H-pyrrolo[2,3-b]pyridin-5-yloxy)benzamide]
EC50 (RS4;11 cells): 9.9 nM
